Here are results for three molecules from patent US7173015B2, “Inhibition of Syk kinase expression” (The Trustees of the University of Pennsylvania, priority 2003, dated 2007).

One data set concerns HS-24 cells. In words: Viability of HS-24 cells by trypan blue dye exclusion. It counts as cell-based. The note with it: no significant effect on viability.
The test system of the next data set is Syk kinase. Description: Western blot densitometry of Syk kinase protein in RBL-2H3 cells transfected with siRNA. It counts as cell-based, rat. As to conditions: for Syk (densitometry quantification of Syk kinase expression) / Syk Corr (Syk densitometry units corrected for % actin expression in each lane): 48 hours after transfection; for Syk (densitometry quantification of Syk kinase expression): Western blot; for Syk Corr (Syk densitometry units corrected for % actin expression in each lane): normalized to actin; for % Syk Inhibition: compared to transfection control. Here is the method: Rat basophilic cells (RBL-2H3) were grown in EMEM supplemented with 17% FBS, 100 U penicillin, 100 μg/ml streptomycin, and 4 mM glutamine at 37° C. in 5% CO2.
SIRNA was introduced into RBL-2H3 cells and into monocytes by transfection. For the transfections, 5×10^4 RBL-2H3 cells or 1×10^5 monocytes were seeded into each well of a 24-well plate. Twenty-four hours later, the complete medium was replaced with 400 μl fresh medium lacking serum and antibiotic and siRNA/Lipofectamine 2000 complex was added to each well. For the RBL cells, the siRNA/Lipofectamine 2000 complex was formed by adding 3 μl of siRNA duplex (20 μM) and 3 μl of Lipofectamine 2000 to 100 μl Opti-mem without serum or antibiotic according to the manufacturer's protocol. For monocytes, the siRNA/Lipofectamine 2000 complex was formed by adding 3 μl of siRNA duplex (20 μM) and 1 μl of Lipofectamine 2000 to 100 μl Opti-mem without serum or antibiotic. Cells were incubated at 37° C. for 48 hours before examination of kinase protein expression by Western blotting
Lysates were prepared by boiling cells in Laemmli sample buffer (2% SDS, 10% glycerol, 100 mM DTT, and 60 mM Tris (pH 6.8) for 5 minutes. Proteins in lysates were separated by SDS-PAGE (10% polyacrylamide) and transferred to a nitrocellulose membrane in […] (25 mM Tris, 190 mM glycine, and 20% methanol). The nitrocellulose membrane was incubated overnight at 4° C. with 1 μg/ml rabbit anti-murine Syk kinsae polyclonal Ab before incubation with goat anti-rabbit HRP (1.5 h at room temperature). Protein bands on the membrane were visualized with chemiluminescence reagent according to the manufacturer's protocol. After detection of Syk kinase protein, the anti-Syk kinase Ab was removed by incubating the membrane in a stripping buffer containing 100 mM 2-ME, 2% SDS, and 62.5 mM Tris-HCL (pH 6.7) for 30 minutes at 50° C. with occasional agitation. The membrane was then reprobed with anti-actin Ab and bands on the membrane were visualized with chemiluminescence reagent. Protein levels of Syk kinase were quantified by densitometry (Personal Densitometer, Molecular Dynamics).
(In general: In western blotting, separated proteins are transferred to a membrane and probed.)

A further data set concerns Syk mRNA. In words: RT-PCR of Syk mRNA in HS-24 cells after siRNA treatment. In kind it is cell-based. The note with it: 48 h treatment. On the procedure:
(§1) FIGS. 5A and 5B. (FIG. 5A) HS-24 cells, following siRNA treatment, were lysed and equal amounts of total protein in HS-24 cell lysates were resolved by 10% SDS gel electrophoresis, and analyzed by Western blot using monoclonal antibody to Syk or actin. Lane 1—no treatment, lane 2—siRNA-1 (control) 24 h treatment, lane 3—siRNA-1 48 h treatment, lane 4—siRNA-2 24 h treatment, lane 5—siRNA-2 48 h treatment. (FIG. 5B) RNA was isolated and RT-PCR was performed for Syk and β-actin. Lane 1—no treatment, lane 2—SiRNA-1 (control) 48 h treatment, lane 3—siRNA-2 48 h treatment.
(§2) More specifically, HS-24 cells were transiently transfected with siRNA-2 or siRNA-1 (control). Cell surface expression of ICAM-1, as well as release of IL-6, were then examined.

Another data set has as its system Syk. In words: Western blot of Syk protein expression in HS-24 cells after siRNA treatment. It counts as cell-based. The note with it: 48 hr treatment. Here is the method: as §1
HS-24 cells (2×10^5) were pre-treated with 3 μl of siRNA-1 (control)
(§3) or Syk antisense, with Lipofectamine 2000 in a 12-well plate for 24 or 48 hr, and stimulated by 10 ng/ml of TNF overnight. Read-outs: IL-6 in culture supernatant (ELISA) and cell surface expression of ICAM-1 (Flow cytometry). As shown by Western blot analysis ([…]), siRNA-2 caused a decrease in Syk protein expression following 48 hr of treatment.
as §2

Data set [1] deals with ICAM-1 (CD54) expression in HS-24 cells. In words: Cell surface expression of ICAM-1 in HS-24 cells (flow cytometry). In kind it is cell-based. As to conditions: for TNF-induced ICAM-1 expression: siRNA 48 h, TNF 10 ng/ml overnight. On the procedure:
(§4) FIGS. 6A and 6B. HS-24 cells plated on either polylysine coated plates (non stimulated, resting) or fibronectin coated plates (stimulated) were treated with siRNA-2, or siRNA-1 (control), or piceatannol. Cells were treated with 10 ng/ml of TNF during overnight culture. (FIG. 6A) Following siRNA (48 h) or piceatannol (16 h) treatment, cells were removed, immunostained with anti-CD54 (ICAM-1) and analysed by flow cytometry. (FIG. 6B) Cell culture supernatants were analysed for IL-6 release using an IL-6 ELISA kit. *P<0.05, **P<0.005 as compared to untreated cells (e.g., untreated with siRNA) stimulated with TNF. Results are representative of three to five independent experiments.
as §3
For orientation: In flow cytometry, cells or beads pass a laser one at a time.

Data set [2] relates to IL-6 release by HS-24 cells. In words: IL-6 release of HS-24 cells into culture supernatant (ELISA). In kind it is cell-based. Here is the method: as §4, §3
On the technique in general: In an ELISA, binding on a coated surface is turned into a signal by an enzyme label.

“Also recorded” adds a separate entry of the source.

Consider `Oc1cc(O)cc(/C=C/c2ccc(O)c(O)c2)c1` [piceatannol], for which, in the data set with HS-24 cells, the “viability (trypan blue dye exclusion)” value was > 96%.

For the molecule “siRNA-1: Syk kinase siRNA duplex; sense 5′ gaagcccuucaaccggccc UU 3′ (SEQ ID NO: 23), antisense 3′-UU cuucgggaaguuggccggg 5′ (SEQ ID NO: 24) (sense GAAGCCCUUCAACCGGCCCUU; antisense GGGCCGGUUGAAGGGCUUCTT; chemistry not given here)”, in the data set with Syk kinase, the “Syk (densitometry quantification of Syk kinase expression)” value worked out at 953 densitometry units, the “Syk Corr (Syk densitometry units corrected for % actin expression in each lane)” value is on record as 1114 densitometry units and the “% Syk Inhibition” value was found to be 45%. Further, the “Syk mRNA expression” value in the data set on Syk mRNA is “not”. Besides, in the data set on Syk, the Syk protein expression entry was “not”.

Take “siRNA-2: Syk kinase siRNA duplex; sense 5′-ccucaucagggaauaucug UU 3′ (SEQ ID NO: 25), antisense 3′-UU ggaguagucccuuauagac 5′ (SEQ ID NO: 26) (sense CCUCAUCAGGGAAUAUCUGUU; antisense CAGAUAUUCCCUGAUGAGGTT; chemistry not fully specified)”: the “TNF-induced ICAM-1 expression (summary of FIG. 6A)” value in data set [1] (HS-24 cells) is reported as “down-regulates”. Also, in data set [1] (HS-24 cells without TNF stimulation), the “constitutive ICAM-1 expression” value was “not affected”. The “TNF-induced ICAM-1 expression” value in data set [1] (fibronectin-plated HS-24 cells) is on record as “down-regulated”. In addition, in data set [1] (poly-L-lysine-plated HS-24 cells), the “TNF-induced ICAM-1 expression” value was “no significant effect”. In data set [2] (HS-24 cells, TNF-induced), the “IL-6 release (summary of FIG. 6B)” value is “down-regulates”. For the same molecule, the “down-regulation of IL-6 release” value in data set [2] (TNF-stimulated HS-24 cells, poly-L-lysine and fibronectin culture, significant in fibronectin-adherent culture (P<0.05)) was 55–58%. Further, in the data set with Syk kinase, the “Syk (densitometry quantification of Syk kinase expression)” value was 627 densitometry units, the “Syk Corr (Syk densitometry units corrected for % actin expression in each lane)” value came out at 997 densitometry units and the “% Syk Inhibition” value is recorded as 51%. The “Syk mRNA expression” value with Syk mRNA is recorded as “significantly suppressed”. Also, in the data set with Syk, the Syk protein expression entry is “decrease; also recorded: significantly suppressed”.
